This is an account of results in US20070059799A1 (priority 1999, published 2007).

Read-outs that look alike come from different tables or passages of the source. Marks after values point to notes of the source that are not given here.

Assay [1] addresses T1, A*0301 (Homo sapiens, UniProt P04439).
T1 construct: endogenous in cells; host or cells: GM3107
The assay is described as follows: Purified HLA class I peptide binding assay (HLA-A*03).

In assay [2] the target is A*3101 (Homo sapiens, UniProt P04439, A270S/D185E/E176V/E277Q/F33T/G231S/G80R/H175R/I121M/I218V/I322F/K168Q/L300P/L318F/M331R/P217A/Q94H/R138Q/T323A/T345S/T97I/V358M). The assay is described as follows: Purified HLA class I peptide binding assay.
Assay [3] deals with A2-supertype alleles. It counts as binding, human.
Assay [4] has as its system human PBMC. Format: cell-based. Particulars: for Immunogenicity primary: primary cultures, responders/tested.
The subject of assay [5] is A*0201/Kb transgenic mice. It counts as in vivo. The note with it: responders/tested.
Assay [6] deals with CTL. Format: cell-based.
Assay [7] concerns the target A*1101 (Homo sapiens, UniProt P04439, A114D/D185E/E176A/F33Y/L180Q/S129P/T187R). Description: Purified HLA class I peptide binding assay (HLA-A*11).
The subject of assay [8] is PBMC from patients acutely infected with HBV. The assay is described as follows: Patient: recall CTL responses in acutely infected HBV patients. Format: cell-based, human. The note with it: for Immunogenicity patients: acute patients, responders/tested, no literature mark. The procedure: Briefly, PBMC from patients acutely infected with HBV were cultured in the presence of 10 μg/ml of synthetic peptide. After seven days, the cultures were restimulated with peptide. The cultures were assayed for cytotoxic activity on day 14 using target cells pulsed with peptide.

The test system is the same in assay [9]. The note with it: responders/tested, cited from earlier work.
Where [10] appears, read: A2-supermotif cross-reactive peptides.
The mark [11] stands for this setting: A2 supermotif peptides, number of A2-supertype alleles bound.
Where [12] appears, read: positive when responders noted in primary cultures, acute patients or transgenic mice.
Where [13] appears, read: A3-supermotif cross-reactive peptides.

Take `C[C@H](N)C(=O)N[C@@H](Cc1ccccc1)C(=O)N[C@H](C(=O)N[C@@H](Cc1ccccc1)C(=O)N[C@@H](CO)C(=O)N1CCC[C@H]1C(=O)N[C@H](C(=O)N[C@@H](Cc1ccc(O)cc1)C(=O)N[C@@H](CCCCN)C(=O)O)[C@@H](C)O)[C@@H](C)O` [20.0130]: the IC50 in assay [1] came out at 42 nM; in assay [2] it was 3100 nM.
On to `CC(C)C[C@H](NC(=O)[C@@H](N)CC(C)C)C(=O)N[C@H](C(=O)N1CCC[C@H]1C(=O)N[C@@H](Cc1ccccc1)C(=O)N[C@H](C(=O)N[C@@H](CCC(N)=O)C(=O)N[C@@H](Cc1c[nH]c2ccccc12)C(=O)N[C@@H](Cc1ccccc1)C(=O)N[C@H](C(=O)O)C(C)C)C(C)C)C(C)C` [1069.06], for which the “Number of A2-supertype alleles bound” value in assay [3] (setting [10]) and in [3] (setting [11]) was 5 in each case. In [3] (number of supertype alleles bound, 3 or more considered degenerate), this compound displayed an Alleles bound of 5. The “immunogenicity in primary human cultures (in words)” value in assay [4] is “immunogenic”. The Immunogenicity primary in [4] (setting [10]) and in assay [4] was 3/4 throughout. Moreover, the Immunogenicity transgenic in assay [5] (A2 supermotif peptides) and in [5] (setting [10]) was 6/9 in each case. The Immunogenicity overall entry in assay [6] (setting [10]) and in [6] (setting [12]) was “+” throughout.
Regarding `CC(C)C[C@H](NC(=O)[C@H](CS)NC(=O)[C@H](Cc1c[nH]cn1)NC(=O)[C@@H]1CCCN1C(=O)[C@H](Cc1ccccc1)NC(=O)[C@H](C)NC(=O)[C@@H](N)CCCNC(=N)N)C(=O)N[C@@H](C)C(=O)N[C@@H](Cc1ccccc1)C(=O)N[C@@H](CO)C(=O)N[C@@H](Cc1ccc(O)cc1)C(=O)O` [Peptide 26.0550], the IC50 was determined as 92 nM in [1] and 15 nM in [7].
With `CC(C)[C@H](N)C(=O)N[C@H](C(=O)N[C@@H](CC(=O)O)C(=O)N[C@@H](Cc1ccccc1)C(=O)N[C@@H](CO)C(=O)N[C@@H](CCC(N)=O)C(=O)N[C@@H](Cc1ccccc1)C(=O)N[C@@H](CO)C(=O)N[C@@H](CCCNC(=N)N)C(=O)O)C(C)C` [Peptide 1069.19], in [7], the IC50 stood at 80 nM.
For the compound `CC(C)C[C@H](NC(=O)[C@@H](NC(=O)[C@@H](N)Cc1ccccc1)C(C)C)C(=O)NCC(=O)NCC(=O)N[C@@H](CS)C(=O)N[C@@H](CCCNC(=N)N)C(=O)N[C@@H](Cc1c[nH]cn1)C(=O)N[C@@H](CCCCN)C(=O)O` [peptide 1.0219], the half-inhibitory concentration (IC50) in [2] turned out to be 1500 nM. Further, in assay [4] (setting [13]), the Immunogenicity primary is 0/4. Moreover, the Immunogenicity overall result in [6] (setting [13]) is recorded as “−”. Moreover, the “immunogenicity in at least one system (in words)” value in [6] (primary cultures, patient responses or HLA transgenic mice) was “With the exception of peptide 1.0219, all of the conserved cross-reactive peptides listed in Table insert table XXXI were found to be immunogenic”.
For `CC(C)C[C@H](N)C(=O)N1CCC[C@H]1C(=O)N[C@@H](CO)C(=O)N[C@@H](CC(=O)O)C(=O)N[C@@H](Cc1ccccc1)C(=O)N[C@@H](Cc1ccccc1)C(=O)N1CCC[C@H]1C(=O)N[C@@H](CO)C(=O)N[C@H](C(=O)O)C(C)C` [peptide 988.05], the Immunogenicity patients was 2/16 in [8] and 2/16 in [9] (patients, Bertoni et al). Besides, the Immunogenicity overall entry in [6] (B7-supermotif cross-reactive peptides) and in [6] (setting [12]) was “+” each time.
`CC(C)C[C@H](NC(=O)CNC(=O)[C@@H](NC(=O)[C@H](Cc1ccccc1)NC(=O)[C@H](CC(N)=O)NC(=O)CNC(=O)[C@@H](NC(=O)[C@@H](N)CCCCN)C(C)C)[C@@H](C)O)C(=O)N[C@@H](Cc1ccc(O)cc1)C(=O)O` [peptide 1142.05]: the “recognition in recall CTL responses from acute HBV patients (in words)” value in assay [8] is on record as “recognized in patients”. Also, the Immunogenicity patients is listed as 2/22 in assay [8] and 2/22 in [9] (patients, Bertoni et al). Further, the Immunogenicity overall entry in assay [6] (non-crossreactive A3-supermotif peptides) and in [6] (setting [12]) was “+” each time.
On to “peptide 1013.01: A2-restricted peptide (WLSLLVPFV)”, for which the “Number of A2-supertype alleles bound” value in [3] (setting [10]) and in [3] (setting [11]) was 4 in each case. The Immunogenicity primary in assay [4] (setting [10]) and in [4] was 2/6 in each case. Moreover, the Immunogenicity transgenic in assay [5] (A2 supermotif peptides) and in assay [5] (setting [10]) was 5/9 each time. For the same compound, the Immunogenicity overall result in assay [6] (setting [10]) and in [6] (setting [12]) was “+” throughout. The Immunogenicity patients in [9] (acute patients, a-Bertoni et al) is reported as 23/29^a; in [9] (acute patients, from a-Bertoni et al, b-Rehermann et al., c-Nayersina et al.), 23/29^a.
